Assay results taken from a compilation of properties of binary mixtures (doi:10.1021/acs.jced.3c00247).

Test: xn = mol fraction of the nth substance listed
Conditions: 100 kPa

C[C@H](N)C(=O)[O-].C[N+](C)(C)CCO + O
Conditions	viscosity [mPa·s]
287.92 K, x1 = 0.097	10.7
287.94 K, x1 = 0.198	60
288 K, x1 = 0.3748	345
288 K, x1 = 0.4948	710
288.02 K, x1 = 0.5975	1059
288.02 K, x1 = 0.8993	3070
288.06 K, x1 = 0.7994	2139
288.08 K, x1 = 0.692	1634
289.2 K, x1 = 0.198	57
289.22 K, x1 = 0.097	10.2
289.22 K, x1 = 0.3748	328
289.23 K, x1 = 0.2939	166
289.24 K, x1 = 0.4948	660
289.26 K, x1 = 0.8993	2817
289.29 K, x1 = 0.7994	1961
290.21 K, x1 = 1	4300
290.48 K, x1 = 0.198	53
290.48 K, x1 = 0.3748	300
290.5 K, x1 = 0.097	9.6
290.5 K, x1 = 0.4948	600
290.5 K, x1 = 0.5975	880
290.52 K, x1 = 0.8993	2510
290.54 K, x1 = 0.692	1293
291.71 K, x1 = 0.2939	140
291.71 K, x1 = 0.3748	274
291.72 K, x1 = 0.097	9.2
291.72 K, x1 = 0.198	50
291.72 K, x1 = 0.4948	540
291.72 K, x1 = 0.5975	790
291.73 K, x1 = 0.7994	1562
291.73 K, x1 = 0.8993	2231
291.74 K, x1 = 0.692	1150
292.02 K, x1 = 1	3052
292.32 K, x1 = 1	3520
292.91 K, x1 = 0.198	46
292.91 K, x1 = 0.2939	129
292.91 K, x1 = 0.3748	250
292.92 K, x1 = 0.7994	1393
292.92 K, x1 = 0.8993	1984
294.08 K, x1 = 1	2544
294.1 K, x1 = 0.198	43
294.1 K, x1 = 0.2939	119
294.1 K, x1 = 0.3748	230
294.1 K, x1 = 0.5975	650
294.1 K, x1 = 0.8993	1775
294.41 K, x1 = 1	2896
295.27 K, x1 = 0.097	8
295.27 K, x1 = 0.198	40.8
295.27 K, x1 = 0.2939	111
295.27 K, x1 = 0.3748	212
295.27 K, x1 = 0.4948	410
295.27 K, x1 = 0.5975	590
295.27 K, x1 = 0.692	840
295.27 K, x1 = 0.8993	1599
296.14 K, x1 = 1	2140
296.45 K, x1 = 0.097	7.7
296.45 K, x1 = 0.198	38.3
296.45 K, x1 = 0.2939	103
296.45 K, x1 = 0.3748	195
296.45 K, x1 = 0.5975	540
296.45 K, x1 = 0.692	760
296.45 K, x1 = 0.8993	1438
296.48 K, x1 = 1	2402
297.63 K, x1 = 0.198	36.2
297.63 K, x1 = 0.2939	96
297.63 K, x1 = 0.3748	181
297.63 K, x1 = 0.4948	347
297.63 K, x1 = 0.5975	490
297.63 K, x1 = 0.692	700
297.63 K, x1 = 0.7994	920
297.63 K, x1 = 0.8993	1302
298.2 K, x1 = 1	1806
298.54 K, x1 = 1	2000
298.8 K, x1 = 0.5975	450
298.8 K, x1 = 0.8993	1183
298.81 K, x1 = 0.097	7.1
298.81 K, x1 = 0.198	34.3
298.81 K, x1 = 0.3748	168
298.81 K, x1 = 0.4948	320
298.81 K, x1 = 0.692	630
299.98 K, x1 = 0.198	32.3
299.98 K, x1 = 0.2939	84
299.98 K, x1 = 0.4948	294
299.98 K, x1 = 0.5975	410
299.98 K, x1 = 0.692	580
299.98 K, x1 = 0.7994	760
299.98 K, x1 = 0.8993	1071
300.61 K, x1 = 1	1681
301.16 K, x1 = 0.097	6.6
301.16 K, x1 = 0.198	30.6
301.16 K, x1 = 0.2939	79
301.16 K, x1 = 0.3748	145
301.16 K, x1 = 0.4948	271
301.16 K, x1 = 0.5975	379
301.16 K, x1 = 0.7994	690
301.16 K, x1 = 0.8993	970
302.33 K, x1 = 0.198	29
302.33 K, x1 = 0.2939	74
302.33 K, x1 = 0.4948	251
302.33 K, x1 = 0.5975	348
302.33 K, x1 = 0.692	480
302.33 K, x1 = 0.7994	630
302.33 K, x1 = 0.8993	890
302.34 K, x1 = 0.097	6.4
302.34 K, x1 = 1	1310
302.66 K, x1 = 1	1421
303.51 K, x1 = 0.097	6.2
303.51 K, x1 = 0.198	27.6
303.51 K, x1 = 0.2939	69
303.51 K, x1 = 0.4948	233
303.51 K, x1 = 0.5975	322
303.51 K, x1 = 0.692	440
303.51 K, x1 = 0.8993	810
304.41 K, x1 = 1	1119
304.69 K, x1 = 0.097	6
304.69 K, x1 = 0.198	26.2
304.69 K, x1 = 0.2939	65
304.69 K, x1 = 0.3748	117
304.69 K, x1 = 0.4948	216
304.69 K, x1 = 0.5975	297
304.69 K, x1 = 0.692	410
304.69 K, x1 = 0.7994	530
304.69 K, x1 = 0.8993	740
305.86 K, x1 = 0.198	24.9
305.86 K, x1 = 0.2939	61
305.86 K, x1 = 0.5975	274
305.86 K, x1 = 0.692	375
305.86 K, x1 = 0.7994	480
305.87 K, x1 = 0.097	5.7
306.48 K, x1 = 1	960
306.78 K, x1 = 1	1030
307.04 K, x1 = 0.097	5.6
307.04 K, x1 = 0.198	23.7
307.04 K, x1 = 0.2939	58
307.04 K, x1 = 0.4948	186
307.04 K, x1 = 0.692	347
307.04 K, x1 = 0.7994	440
308.21 K, x1 = 0.4948	173
308.21 K, x1 = 0.5975	236
308.21 K, x1 = 0.692	321
308.22 K, x1 = 0.097	5.4
308.22 K, x1 = 0.198	22.6
308.22 K, x1 = 0.2939	54
308.22 K, x1 = 0.3748	96
308.22 K, x1 = 0.7994	410
308.22 K, x1 = 0.8993	570
308.54 K, x1 = 1	830
308.84 K, x1 = 1	880
310.61 K, x1 = 1	720
310.9 K, x1 = 1	760
312.67 K, x1 = 1	630
312.95 K, x1 = 1	660
314.74 K, x1 = 1	550
315.01 K, x1 = 1	570
316.82 K, x1 = 1	480
317.07 K, x1 = 1	500
318.91 K, x1 = 1	420
319.13 K, x1 = 1	440
321.04 K, x1 = 1	374
321.19 K, x1 = 1	387
323.25 K, x1 = 1	342

O + C[C@H](N)C(=O)[O-].C[N+](C)(C)CCO
x2 = 0
Conditions	viscosity [mPa·s]
288.09 K	1.08
289.33 K	1.05
290.56 K	1.02
291.75 K	0.98
292.93 K	0.96
294.1 K	0.93
295.28 K	0.9
297.64 K	0.86
298.81 K	0.84
301.17 K	0.8
302.34 K	0.78
303.52 K	0.77
304.69 K	0.75
305.87 K	0.74
308.22 K	0.71
